The values below come from patent US9884063B2, “Amido-substituted azole compounds” (Bayer Pharma Aktiengesellschaft, priority 2014, dated 2018).

One test deals with T1, TNKS2 (Homo sapiens, UniProt Q9H2K2).
T1 sequence (Q9H2K2 1-1166): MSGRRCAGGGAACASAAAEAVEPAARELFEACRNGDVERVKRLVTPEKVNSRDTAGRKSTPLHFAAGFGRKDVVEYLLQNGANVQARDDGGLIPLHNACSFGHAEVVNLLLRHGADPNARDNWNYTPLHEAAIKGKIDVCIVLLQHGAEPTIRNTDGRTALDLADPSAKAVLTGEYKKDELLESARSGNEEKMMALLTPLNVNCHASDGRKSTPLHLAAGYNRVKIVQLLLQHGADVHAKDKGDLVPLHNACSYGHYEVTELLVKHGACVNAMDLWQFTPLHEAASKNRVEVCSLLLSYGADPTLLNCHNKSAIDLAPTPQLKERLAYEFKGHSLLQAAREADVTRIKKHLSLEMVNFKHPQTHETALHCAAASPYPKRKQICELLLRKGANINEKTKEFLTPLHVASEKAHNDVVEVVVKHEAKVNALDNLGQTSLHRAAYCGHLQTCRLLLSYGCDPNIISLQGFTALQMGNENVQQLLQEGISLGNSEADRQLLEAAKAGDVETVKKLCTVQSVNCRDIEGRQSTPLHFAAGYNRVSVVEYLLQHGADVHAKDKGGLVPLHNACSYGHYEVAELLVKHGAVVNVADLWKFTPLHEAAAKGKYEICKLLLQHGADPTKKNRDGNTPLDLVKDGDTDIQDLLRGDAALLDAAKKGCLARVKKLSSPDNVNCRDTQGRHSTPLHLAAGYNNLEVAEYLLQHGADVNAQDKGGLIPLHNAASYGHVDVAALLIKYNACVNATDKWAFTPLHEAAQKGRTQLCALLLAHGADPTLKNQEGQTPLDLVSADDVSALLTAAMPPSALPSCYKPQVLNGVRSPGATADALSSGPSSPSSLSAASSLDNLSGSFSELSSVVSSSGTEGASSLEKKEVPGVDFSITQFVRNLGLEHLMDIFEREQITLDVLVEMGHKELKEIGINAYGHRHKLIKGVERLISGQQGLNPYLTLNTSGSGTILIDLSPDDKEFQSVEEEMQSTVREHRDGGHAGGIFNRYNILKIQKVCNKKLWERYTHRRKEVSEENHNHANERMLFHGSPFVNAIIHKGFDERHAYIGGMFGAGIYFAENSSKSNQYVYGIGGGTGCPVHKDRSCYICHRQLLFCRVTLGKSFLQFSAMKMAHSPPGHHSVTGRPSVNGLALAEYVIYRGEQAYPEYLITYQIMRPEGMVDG
Briefly: Modified TNKS2 Assay 2 (auto-parsylation, [3H]-NAD+ SPA). The test is classed as biochemical. Conditions: 6 nM TNKS2, 96 well.

For test [1], the system named is HEK293 FOP control reporter cell line. Description: HEK293 FOP Assay (FOP control vector luciferase reporter). The format is cell-based. The settings on record: Homo sapiens. An outline of the steps: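 Compound series 50 μM to 15 nM, 3.16-fold steps, were diluted in CAFTY buffer (pH 7.4, 2 mM Ca2+, 0.01% BSA) and tested alongside the TOP reporter line. Human Wnt-3a was added at 2500–5 ng/ml in two-fold steps. The control HEK293 line stably holds an FOP vector whose TCF elements are randomized and non-functional.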
(In general: In a reporter assay the amount or activity of a reporter protein is the signal.)

The mark [2] stands for this setting: HEK293 FOP control reporter cell line, 16 hours incubation, compound dilution series 50 μM to 15 nM.
[3] abbreviates: HEK293 FOP control reporter cells, 16 hours, luciferase, dilution series from 50 μM.

In general, IC50 refers to the point on the concentration scale where inhibition reaches its midpoint.

In the case of `CNC(=O)c1nc[nH]c1C(=O)Nc1ccc(NC(=O)c2ccccc2)cc1` [Example 21, N^5-[4-(benzoylamino)phenyl]-N^4-methyl-1H-imidazole-4,5-dicarboxamide], the 50% inhibitory concentration (IC50) is greater than 10 µM on TNKS2, 35 µM in test [1] (setting [2]) and 35 µM in test [1] (setting [3]).

For the compound `CCc1ccccc1C(=O)Nc1ccc(NC(=O)c2[nH]cnc2C(=O)NC)cc1` [Example 39, N^5-{4-[(2-ethylbenzoyl)amino]phenyl}-N^4-methyl-1H-imidazole-4,5-dicarboxamide], the IC50 is 2.2 µM against TNKS2, 5.5 µM in test [1] (setting [2]) and 5.5 µM in test [1] (setting [3]).

`CCNC(=O)c1nc[nH]c1C(=O)Nc1ccc(NC(=O)c2cnccc2Cl)cc1` [Example 263, N^5-(4-{[(4-chloropyridin-3-yl)carbonyl]amino}phenyl)-N^4-ethyl-1H-imidazole-4,5-dicarboxamide]: the concentration for half-maximal inhibition (IC50) is 0.5 µM at TNKS2 and 27.5 µM in test [1] (setting [2]).

For `CCNC(=O)c1nc[nH]c1C(=O)Nc1ccc(NC(=O)c2cc(OC)ccc2Cl)cc1` [Example 264, N^5-{4-[(2-chloro-5-methoxybenzoyl)amino]phenyl}-N^4-ethyl-1H-imidazole-4,5-dicarboxamide], the half-maximal inhibitory concentration (IC50) at TNKS2 is 0.48 µM; in test [1] (setting [2]), 16 µM.

Take `O=C(Nc1ccc(NC(=O)c2[nH]cnc2C(=O)NCCN2CCCCC2)cc1)c1ccc(F)cc1I` [Example 62, N^5-{4-[(4-fluoro-2-iodobenzoyl)amino]phenyl}-N^4-[2-(piperidin-1-yl)ethyl]-1H-imidazole-4,5-dicarboxamide]: the half-maximal inhibitory concentration (IC50) against TNKS2 came to 0.31 µM; in test [1] (setting [2]), 24 µM.
